Data reported in the supplement of paper PMC10307832.

Assays:
Experiment in all cases: relative viability (nuclei count vs DMSO), 5 days (fraction); higher = more cells survive
XMD8-85 + Phenformin = compound: CN1CCN(CC1)C2=CC(=C(C=C2)NC3=NC=C4C(=N3)N(C5=CC=CC=C5C(=O)N4C)C)OC [XMD8-85] + N=C(N)NC(=N)NCCc1ccccc1 [Phenformin] (partner 250 µM)
Procedure, shortened: (§1)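 The day after seeding in 1536-well plates, lung cancer cell lines were treated by pin tool with a single drug, or with a fixed anchor-drug dose together with five library-drug doses (not always all listed) in √10 steps. After 5 days, a combined fix-and-stain solution (final 0.05% Triton X-100, 1% formaldehyde, 1 ug/ml Hoechst) was added. Nuclei counted on 4× images gave relative viability as treated counts over vehicle counts, reported as the median of duplicate plates.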

XMD8-85 + Pictilisib = compound: CN1CCN(CC1)C2=CC(=C(C=C2)NC3=NC=C4C(=N3)N(C5=CC=CC=C5C(=O)N4C)C)OC [XMD8-85] + CS(=O)(=O)N1CCN(Cc2cc3nc(-c4cccc5[nH]ncc45)nc(N4CCOCC4)c3s2)CC1 [Pictilisib] (partner 1 µM)
Procedure, shortened: as §1

4EGI-1 + Phenformin = compound: O=C(O)C(Cc1ccccc1[N+](=O)[O-])=NNc1nc(-c2ccc(Cl)c(Cl)c2)cs1 (mixture of isomers) [4EGI-1] + N=C(N)NC(=N)NCCc1ccccc1 [Phenformin] (partner 250 µM)
Procedure, shortened: as §1

4EGI-1 + Bortezomib = compound: O=C(O)C(Cc1ccccc1[N+](=O)[O-])=NNc1nc(-c2ccc(Cl)c(Cl)c2)cs1 (mixture of isomers) [4EGI-1] + CC(C)C[C@H](NC(=O)[C@H](Cc1ccccc1)NC(=O)c1cnccn1)B(O)O [Bortezomib] (partner 0.002 µM)
Procedure, shortened: as §1

NCI-H1792 was tested, and the relative viability (XMD8-85 + Phenformin; first compound 0.253 µM) was 0.268, the relative viability (XMD8-85 + Phenformin; first compound 2.53 µM) was 0.257 and the relative viability (XMD8-85 + Phenformin; first compound 8 µM) was 0.486. The relative viability (XMD8-85 + Pictilisib; first compound 0.08 µM) was 0.251, the relative viability (XMD8-85 + Pictilisib; first compound 0.253 µM) was 0.226 and the relative viability (XMD8-85 + Pictilisib; first compound 2.53 µM) was 0.276. The relative viability (XMD8-85 + Pictilisib; first compound 8 µM) was 0.317, the relative viability (4EGI-1 + Phenformin; first compound 0.5 µM) was 0.285 and the relative viability (4EGI-1 + Phenformin; first compound 1.581 µM) was 0.462. The relative viability (4EGI-1 + Phenformin; first compound 5 µM) was 0.41, the relative viability (4EGI-1 + Phenformin; first compound 15.81 µM) was 0.322 and the relative viability (4EGI-1 + Phenformin; first compound 50 µM) was 0.378. The relative viability (4EGI-1 + Bortezomib; first compound 0.5 µM) was 0.916, the relative viability (4EGI-1 + Bortezomib; first compound 1.581 µM) was 0.392 and the relative viability (4EGI-1 + Bortezomib; first compound 5 µM) was 0.933. It also gave a relative viability (4EGI-1 + Bortezomib; first compound 15.81 µM) of 0.89 and a relative viability (4EGI-1 + Bortezomib; first compound 50 µM) of 0.904.
